Tested on: grapes (Vitis labrusca L.)
Test: Volatility evaluation: injury to grapes from vapor exposure to treated wheat
Assay type: in vivo
Conditions: wheat sprayed at 11200 g ae/ha; 24 hour vapor exposure at 40° C.; evaluated 7 days after exposure
Description: Method for evaluating the volatility of herbicide standards and the compounds derived from combining a carboxylic acid herbicide with either a tetraalkylammonium or an (arylalkyl)trialkylammonium hydroxide.
Four pots of wheat (Triticum aestivum L.) grown in 4 inch square pots were sprayed at 11200 g ae/ha with each of the different forms of 2,4-D. Treatments were applied with a tracksprayer manufactured by Allen Machine Works. The sprayer utilized an 8002E spray nozzle, spray pressure of 262 kPa pressure and speed of 1.5 mph (2.4 km/h) to deliver 187 L/Ha. The nozzle height was 46 cm above the plant canopy. The growth stage of the wheat was 1 to 2 leaf. The wheat plants were allowed to thoroughly dry to ensure that none of the spray solution was present when they were moved into a clean pot flat. A known sensitive species, grapes (Vitis labrusca L.) were placed at the opposite end of the flat. All of the pots were covered with a humidome with small ½ inch (1.27 cm) diameter holes cut into the end where the wheat was placed and a small box fan powered with a battery in the other end to pull air across the treated wheat plants and over the top of grapes. […] A 24 hour exposure period was used after which the sensitive plants were then removed and placed in the greenhouse and evaluated for injury from vapor exposure to the treatments.

CNC.COc1c(Cl)ccc(Cl)c1C(=O)O [Dicamba DMA]
% Injury to grapes from vapor exposure: 70%
